The values that follow come from patent US20240166770A1, “COMPOSITIONS AND METHODS FOR INHIBITION OF CELL-PENETRATING ANTIBODIES” (Yale University, priority 2019, published 2024).

Where two headings read alike, the source gives them in different places.

The target of data set [1] is T1, hENT4 (Homo sapiens, UniProt Q7RTT9).
T1 sequence (Q7RTT9 1-530): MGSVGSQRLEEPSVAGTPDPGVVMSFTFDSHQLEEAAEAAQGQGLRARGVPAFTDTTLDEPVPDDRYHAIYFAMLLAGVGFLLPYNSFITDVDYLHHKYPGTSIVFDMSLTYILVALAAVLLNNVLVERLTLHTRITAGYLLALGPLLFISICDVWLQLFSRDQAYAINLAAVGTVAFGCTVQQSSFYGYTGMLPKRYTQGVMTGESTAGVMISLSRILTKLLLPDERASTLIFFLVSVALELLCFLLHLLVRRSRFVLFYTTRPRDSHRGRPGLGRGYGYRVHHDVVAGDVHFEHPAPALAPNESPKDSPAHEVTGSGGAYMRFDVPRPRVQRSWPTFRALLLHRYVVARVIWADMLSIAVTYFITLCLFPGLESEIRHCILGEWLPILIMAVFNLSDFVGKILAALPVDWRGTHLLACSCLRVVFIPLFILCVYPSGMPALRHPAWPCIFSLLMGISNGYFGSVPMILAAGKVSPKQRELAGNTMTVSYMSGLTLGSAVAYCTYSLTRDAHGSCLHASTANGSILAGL
The settings on record: Table 1, different ring systems at the 4- and 8-positions; cited from earlier work.

The target of data set [2] is T2, ENT2 (Homo sapiens, UniProt Q14542).
T2 sequence (Q14542 1-456): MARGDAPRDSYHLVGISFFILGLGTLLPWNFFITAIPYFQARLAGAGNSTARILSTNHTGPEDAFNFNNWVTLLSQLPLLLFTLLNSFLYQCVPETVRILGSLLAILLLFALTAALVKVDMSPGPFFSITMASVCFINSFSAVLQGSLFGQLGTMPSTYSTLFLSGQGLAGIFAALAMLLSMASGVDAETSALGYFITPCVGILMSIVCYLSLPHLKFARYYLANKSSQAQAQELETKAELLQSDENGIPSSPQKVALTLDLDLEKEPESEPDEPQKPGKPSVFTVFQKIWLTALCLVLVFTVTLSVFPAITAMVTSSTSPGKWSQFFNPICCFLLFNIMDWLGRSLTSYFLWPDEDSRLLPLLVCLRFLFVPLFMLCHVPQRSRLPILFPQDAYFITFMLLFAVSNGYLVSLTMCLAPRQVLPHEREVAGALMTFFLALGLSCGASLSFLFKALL
As to conditions: cited from earlier work; for Ki: Visser et al. 2002.

Data set [3] addresses T1, hENT4. The settings on record: cited from earlier work.
The target in data set [4] is T2, ENT2. As to conditions: Table 1, different ring systems at the 4- and 8-positions; cited from earlier work.
For data set [5], the target named is T2, ENT2. The settings on record: ENT2-dependent transduction; cited from earlier work.
In data set [6] the test system is TNBC brain metastases (231-BR cells). The format is in vivo. The settings on record: 20 mg/kg tail vein 3x/week for 4 weeks. The procedure: TNBC brain metastases were generated in mice by intracardiac injection of luciferase-expressing 231-BR cells. Mice were treated with tail vein injection of control (PBS) or h3E10 di-scFv (20 mg/kg) 3×/week for 4 weeks, and brain metastases were tracked by IVIS.

Data set [7] has as its system hCMEC/D3 Transwell filter BBB model. Kind of data set: Transwell filter model of the human BBB (hCMEC/D3 and normal human astrocytes). Type of data set: in vitro ADME. The settings on record: basolateral chamber one hour after addition to apical chamber, western blot.

For the molecule `OCCN(CCO)c1nc(N2CCCCC2)c2nc(N(CCO)CCO)nc(N3CCCCC3)c2n1` [Dipyridamole, 2,6-bis-(diethanolamino)-4,8-di-piperidino-pyrimidopyrimidine], the 50% inhibitory concentration (IC50) in data set [1] was 2.8 µM; in data set [4], 0.308 µM. Further, in data set [2], the inhibition constant (Ki) was 6.2 µM. In addition, the “inhibition of hENT4 (in words)” value is given as “only weakly inhibits” in data set [3] and “moderate inhibitors” in data set [3] (listed as dipyridamole).

`O=[N+]([O-])c1ccc(CSc2ncnc3c2ncn3[C@@H]2O[C@H](CO)[C@@H](O)[C@H]2O)cc1` [NBMPR]: the half-inhibitory concentration (IC50) in data set [1] was 2.33 µM; in data set [2] (Ward et al. 2000, SenGupta et al. 2002) it was 2.8 µM; in data set [4], 1.35 µM. In addition, in data set [5], the “inhibition of intranuclear transduction of mouse 3E10 Fv” value is listed as “inhibited”. Also, the “inhibition of hENT4 (in words)” value in data set [3] is recorded as “moderate inhibitors”.

`COc1cc(C(=O)OCCCN2CCCN(CCCOC(=O)c3cc(OC)c(OC)c(OC)c3)CC2)cc(OC)c1OC` [dilazep]: the Ki in data set [2] was 134 µM.

B1: h3E10 di-scFv: modified, humanized 3E10 lupus autoantibody di-scFv, SEQ ID NO:70, Variant 13 (protein)
scFv: DIQMTQSPSSLSASLGDRATITCRASKTVSTSSYSYMHWYQQKPGQPPKLLIKYASYLESGVPSRFSGSGSGTDFTLTISSLQPEDAATYYCQHSREFPWTFGGGTKVEIKRADAAPGGGGSGGGGSGGGGSEVQLVESGGGLVQPGGSLRLSCAASGFTFSNYGMHWVRQAPGKGLEWVSYISSGSSTIYYADSVKGRFTISRDNAKNSLYLQMNSLRAEDTAVYYCARRGLLLDYWGQGTTVTVSSASTKGPSVFPLAPLESSGSDIQMTQSPSSLSASLGDRATITCRASKTVSTSSYSYMHWYQQKPGQPPKLLIKYASYLESGVPSRFSGSGSGTDFTLTISSLQPEDAATYYCQHSREFPWTFGGGTKVEIKRADAAPGGGGSGGGGSGGGGSEVQLVESGGGLVQPGGSLRLSCAASGFTFSNYGMHWVRQAPGKGLEWVSYISSGSSTIYYADSVKGRFTISRDNAKNSLYLQMNSLRAEDTAVYYCARRGLLLDYWGQGTTVTVSS
For B1, in data set [6], the “growth of brain metastases (radiance by IVIS)” value was “Suppresses Tumor Growth”. In addition, the median survival in data set [6] (control 38 days, P<0.02) came out at 52 days. The “transport of h3E10 di-scFv across Transwell filter BBB model” value in data set [7] is given as “crosses”.

What is called IC50 is the point on the concentration scale where inhibition reaches its midpoint. By Ki is commonly meant a dissociation constant, usually derived from enzyme kinetics or from competition with a known ligand.
